Results from ChEMBL document CHEMBL5584270, “Synthesis and Evaluation of 1,3-Disubstituted Imidazolidine-2,4,5-triones as Inhibitors of Pyruvate Carboxylase” (ACS Med Chem Lett, 2024).
The source made the active and inactive calls. The calls are words filed in the database; no cut-off is given here.

What was measured:
Pseudomonas syringae = assay: Inhibition of Pseudomonas syringae guanidine carboxylase using urea as substrate at 200 uM by coupled enzyme assay
[1] = target: Macrophage metalloelastase (Homo sapiens) (UniProt P39900); assay: Inhibition of MMP-12 (unknown origin) at 50 uM
Chain of Macrophage metalloelastase (Homo sapiens) (P39900 106-470 limits assumed): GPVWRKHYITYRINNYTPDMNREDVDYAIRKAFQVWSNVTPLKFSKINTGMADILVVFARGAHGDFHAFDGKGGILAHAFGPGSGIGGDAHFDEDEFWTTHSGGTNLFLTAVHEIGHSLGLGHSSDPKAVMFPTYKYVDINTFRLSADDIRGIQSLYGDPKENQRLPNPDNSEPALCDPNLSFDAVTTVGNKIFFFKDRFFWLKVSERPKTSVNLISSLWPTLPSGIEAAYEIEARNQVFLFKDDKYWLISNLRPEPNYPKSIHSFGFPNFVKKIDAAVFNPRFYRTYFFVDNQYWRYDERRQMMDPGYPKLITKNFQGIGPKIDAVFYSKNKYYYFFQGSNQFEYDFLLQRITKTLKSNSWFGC

Pyruvate carboxylase [2] = target: T1, Pyruvate carboxylase (Staphylococcus aureus (strain Mu50 / ATCC 700699), UniProt A0A0H3JRU9); assay: Inhibition of Staphylococcus aureus Pyruvate carboxylase using pyruvate, HCO3-, ATP and NADH as substrate assessed as oxaloacetate formation by measuring NADH oxidation by spectrophotometry based malate dehydrogenase coupled enzyme assay
T1 sequence (A0A0H3JRU9 whole entry): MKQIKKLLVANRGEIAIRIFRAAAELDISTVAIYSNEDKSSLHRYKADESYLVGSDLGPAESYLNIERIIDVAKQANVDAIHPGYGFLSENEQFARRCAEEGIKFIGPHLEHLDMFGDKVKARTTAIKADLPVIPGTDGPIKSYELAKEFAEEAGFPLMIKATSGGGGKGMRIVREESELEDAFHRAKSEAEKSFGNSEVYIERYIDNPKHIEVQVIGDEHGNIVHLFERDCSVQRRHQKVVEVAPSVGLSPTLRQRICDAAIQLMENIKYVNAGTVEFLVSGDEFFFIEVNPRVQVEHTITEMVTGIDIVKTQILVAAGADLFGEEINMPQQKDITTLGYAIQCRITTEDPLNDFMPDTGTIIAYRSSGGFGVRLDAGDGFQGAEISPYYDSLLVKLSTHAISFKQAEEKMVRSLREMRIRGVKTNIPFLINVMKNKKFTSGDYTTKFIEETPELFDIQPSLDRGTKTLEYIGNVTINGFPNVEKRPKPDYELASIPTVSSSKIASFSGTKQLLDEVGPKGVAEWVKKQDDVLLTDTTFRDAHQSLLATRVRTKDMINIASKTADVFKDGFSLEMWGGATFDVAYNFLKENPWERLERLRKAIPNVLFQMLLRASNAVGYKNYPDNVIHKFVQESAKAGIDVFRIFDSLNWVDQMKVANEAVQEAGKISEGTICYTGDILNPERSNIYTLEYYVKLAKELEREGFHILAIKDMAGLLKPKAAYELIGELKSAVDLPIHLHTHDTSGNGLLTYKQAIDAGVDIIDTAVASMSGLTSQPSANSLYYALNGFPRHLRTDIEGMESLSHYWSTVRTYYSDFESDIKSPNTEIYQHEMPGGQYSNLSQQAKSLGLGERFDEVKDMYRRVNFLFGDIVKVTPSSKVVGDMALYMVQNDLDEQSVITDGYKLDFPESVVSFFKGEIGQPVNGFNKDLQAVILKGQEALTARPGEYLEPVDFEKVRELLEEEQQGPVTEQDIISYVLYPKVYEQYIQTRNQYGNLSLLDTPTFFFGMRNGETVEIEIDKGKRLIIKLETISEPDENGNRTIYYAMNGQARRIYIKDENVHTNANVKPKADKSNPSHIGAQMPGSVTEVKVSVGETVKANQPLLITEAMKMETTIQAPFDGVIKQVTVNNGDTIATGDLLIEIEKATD

Homo sapiens = species on record: Homo sapiens; assay: Inhibition of MDH (unknown origin)
[3] = target: Carbonic anhydrase 2 (Homo sapiens) (UniProt P00918); assay: Inhibition of human CA2 at 200 uM
Pyruvate carboxylase [4] = target: T1, Pyruvate carboxylase; assay: Non-competitive inhibition of Staphylococcus aureus pyruvate carboxylase assessed as inhibition constant pretreated with ATP followed by pyruvate, HCO3- and NADH addition by steady state kinetic analysis
Pyruvate carboxylase [5] = target: T1, Pyruvate carboxylase; assay: Mixed type inhibition of Staphylococcus aureus pyruvate carboxylase assessed as inhibition constant pretreated with pyruvate followed by ATP, HCO3- and NADH addition by steady state kinetic analysis
Pyruvate carboxylase [6] = target: T1, Pyruvate carboxylase; assay: Mixed type inhibition of Staphylococcus aureus pyruvate carboxylase assessed as inhibition constant pretreated with ATP followed by pyruvate, HCO3- and NADH addition by steady state kinetic analysis
Pyruvate carboxylase [7] = target: T1, Pyruvate carboxylase; assay: Inhibition of Staphylococcus aureus pyruvate carboxylase by FVB based high-throughput fixed time assay

Row | SMILES | inhibition (Pseudomonas syringae) | inhibition [1] | IC50 (Pyruvate carboxylase [2]) [µM] | inhibition (Homo sapiens) | inhibition [3] | Ki (Pyruvate carboxylase [4]) [µM] | Ki (Pyruvate carboxylase [5]) [µM] | Ki (Pyruvate carboxylase [6]) [µM] | IC50 (Pyruvate carboxylase [7]) [µM]
1 | CCCOC(=O)CN1C(=O)C(=O)N(c2ccccc2)C1=O | inactive | inactive | 5 | inactive | inactive |  |  |  | 
2 | CCOC(=O)CN1C(=O)C(=O)N(c2ccccc2)C1=O | inactive | inactive | 5.1 | inactive | inactive |  |  |  | 
3 | COC(=O)CN1C(=O)C(=O)N(c2ccccc2)C1=O |  |  | 3.5 | inactive |  |  |  |  | 
4 | O=C1C(=O)N(c2ccc(Br)cc2)C(=O)N1Cc1ccccc1 |  |  | 290 | inactive |  |  |  |  | 
5 | O=C1C(=O)N(c2ccccc2)C(=O)N1CCc1ccccc1 |  |  | 370 | inactive |  |  |  |  | 
6 | CCOC(=O)CN1C(=O)C(=O)N(CC(=O)OCC)C1=O |  |  | 9 | inactive |  |  |  |  | 
7 | CCOC(=O)CN1C(=O)C(=O)N(Cc2cccs2)C1=O | inactive | inactive | 5.2 | inactive | inactive | 14 | 1.8 |  | 
8 | O=C(O)CN1C(=O)C(=O)N(Cc2ccccc2)C1=O | inactive | inactive | 30 | inactive | inactive | 140 | 9 |  | 
9 | COC(=O)CCN1C(=O)C(=O)N(Cc2ccccc2)C1=O |  |  | 68 | inactive |  |  |  |  | 
10 | CCOC(=O)CN1C(=O)C(=O)N(Cc2ccccc2)C1=O | inactive | inactive | 7.3 | inactive | inactive |  | 0.58 | 7 | 
11 | O=C1C(=O)N(c2ccccc2)C(=O)N1Cc1ccccc1 | inactive | inactive | 64 | inactive | inactive | 150 | 24 |  | 
12 | COc1ccc(N2C(=O)C(=O)N(Cc3ccccc3)C2=O)cc1 | inactive | inactive | 17 | inactive | inactive |  |  |  | 
13 | CC(c1ccccc1)N1C(=O)C(=O)N(c2ccccc2)C1=O (configuration not stated) |  |  | 35 | inactive |  |  |  |  | 
14 | CCOC(=O)CN1C(=O)C(=O)N(CCc2cccs2)C1=O | inactive | inactive | 7.9 | inactive | inactive |  |  |  | 
15 | O=C1C(=O)N(c2ccccc2)C(=O)N1CCc1cccs1 |  |  | 92 | inactive |  |  |  |  | 
16 | O=C1C(=O)N(C2CCCc3ccccc32)C(=O)N1c1ccccc1 (configuration not stated) |  |  | 59 | inactive |  |  |  |  | 
17 | CCOC(=O)CN1C(=O)C(=O)N(CCc2ccccc2)C1=O | inactive | inactive | 9.3 | inactive | inactive |  |  |  | 
18 | CCOC(=O)CCN1C(=O)C(=O)N(c2ccc(F)cc2)C1=O | inactive | inactive | 29 | inactive | inactive |  |  |  | 
19 | CCOC(=O)CN1C(=O)C(=O)N(Cc2ccco2)C1=O | inactive | inactive | 12 | inactive | inactive |  |  |  | 
20 | CCOC(=O)CN1C(=O)C(=O)N(c2ccc(F)cc2)C1=O | inactive | inactive | 3.4 | inactive | inactive |  |  |  | 
21 | CN1C(=O)C(=O)N(CC(=O)c2cccs2)C1=O | inactive | inactive | 45 | inactive | inactive | 38 | 5.2 |  | 35
